Laboratory results as given in patent US11278682B2, “Device and method for aerosolized delivery of substance to a natural orifice of the body” (SIPNOSE LTD., priority 2014, dated 2022).
Values joined by “and” are separate entries in the source; they are usually repeats but may differ in a detail not shown here. Identical values can stand only once.

Tests used:
patients [1] = test: Midazolam pre-medication sedation (BIS EEG monitoring), 1.4 mg, SipNose vs MAD Nasal atomizer; format: in vivo, human; conditions: for Positive Sedation / Adverse events / Level of minimum BIS / Onset time: individual patients 1 and 2
Description: Comparison with MAD (using a 1 mg/ml solution): For a pre-medication procedure with MAD atomizer, in order to achieve the desired dose of 1.4 mg Midazolam, the delivery device was delivered to one nostril and an aliquot of Midazolam within a volume of 1.4 ml was delivered. For SipNose device delivery the Midazolam was delivered in 2 separate aliquots of 0.7 ml, one to each nostril.
In order to determine the efficacy of anesthetization a BIS EEG monitoring was used, where the BIS values for brain activity are calculated from the EEG activity. Awake, unsedated individuals typically have BIS values ≥97. Mildly sedated individuals typically have BIS values in the 80's, moderately sedated individuals typically have BIS values in the 70's, while fully sedated individuals typically have BIS values below about 70; BIS values between about 45 and about 60 are commonly used for general anesthesia during the maintenance phase of an operation.
Two comparisons were made between the commercial device and the present, SipNose, device. In the first, 3 mg of Midazolam was administered and the commercial device was a commercial nasal pump (positive displacement), in the second, 1.4 mg of Midazolam was administered and the commercial device was a MAD applicator.
In the second comparison, the total dose of Midazolam was 1.4 mg in a total volume of carrier of 1.4 ml. For the SipNose device, it was administered in two aliquots of 0.7 ml, whereas it was administered in one aliquot for the commercial MAD Nasal atomizer from Wolfe Tory. Midozolam was administered to four patients, two with the SipNose device and two with the commercial MAD device.

[2] = system: New Zealand White female rabbits; test: Nasal cavity irritation and general toxicity of repeated intra-nasal Midazolam
Description: Nasal cavity irritation and general toxicity were assessed for repeated intra-nasal applications of Midazolam to rabbits, using a SipNose intra-nasal delivery device. Six New Zealand White female rabbits were used, with the three experimental animals being given two 200 μL doses of Midazolam (5 mg/ml) per day, six hours apart. The three control animals were given four 200 μL doses of saline solution per day, at 3 hour intervals.
The daily dosing was repeated for 10 days, for 11 days' dosage in total. 24 hours after the last dosing, the animals were sacrificed.
The animals were observed once daily until study termination. Shortly before sacrifice, blood was taken for testing.
After sacrifice, gross pathology was performed, examining major tissue and organ systems. Organs (nasal cavity (including olfactory epithelium), nasopharynx, paranasal sinus, trachea, lungs, larynx, brain (olfactory bulbs and hippocampus), heart, olfactory nerve, optic nerve and lacrimal glands) of all animals were harvested and examined. Three cross sections of the skull were taken: (1) in the nose from rostral, (2) behind the incisor teeth and (3) caudal, including the olfactory epithelium labyrinth, as shown in FIG. 85.
Brains were dissected in the olfactory regions and the hippocampus. Lungs were evaluated in both right and left lobes. Tissues were trimmed, embedded in paraffin, sectioned at no more than 5 microns thickness, and stained with Hematoxylin & Eosin (H&E).
In order to alleviate the discomfort an animal might endure during intra-nasal administration, prior to placement the sipNose device, Lidocaine was applied locally in the nasal area.

[3] = Midazolam pharmacokinetic study, plasma and brain, SipNose vs IV; conditions: rats
Description: Concentration of Midazolam in the plasma and brain of rats were compared for intranasal administration via the SipNose delivery device and via IV administration. A standard drug formulation (Injectable Midazolam 5 mg/ml, Pfizer/Hospira brand) was used, with no reformulation or adaptation for nasal delivery. Two drug concentrations were used for the intranasal administration, 0.2 mg/kg (dashed line in FIGS. 91 and 92) and 0.6 mg/kg (dot-dash line in FIGS. 91 and 92), compared to the standard of care I/V administration of 0.6 mg/kg (solid line in FIGS. 91 and 92). Concentration was measured 10 times in the 12 hours of the study. For each measurement time, midazolam concentration was measured in the plasma and brain of five animals.

patients [4] = test: Midazolam as pre-anesthetic drug: effectiveness, safety and user compliance, SipNose vs commercial nasal pump; format: in vivo, human; conditions: for BIS value (minimum after administration): 8 patients
Description: Midazolam was administered as a pre-anesthetic drug as a part of premeditation to subjects that needed to be anesthetized prior to the beginning a surgical procedure. Administration of the pre-anesthetic drug was done intranasally instead of the routine PO/IM (oral/intramuscular) route used by the anesthesiologist from the hospital.
The intranasal administration was given by one of the following medical devices: a SipNose nasal device (FIG. 93A) or a commercial nasal pump (FIG. 93B). A single dose of 1×600 microliter (μl) was given with the SipNose device, while 6×100 μl doses were given with a commercial nasal pump. An exemplary administration for the SipNose device is shown in FIG. 94A, while an exemplary administration for the commercial nasal pump is shown in FIG. 94B.
Eight low-risk patients (American Society of Anesthesiology physical status classification I or II) patients were included in each group. Clinical status of the patients, standard continuous monitoring of vital signs, and continuous bispectral index (BIS) monitoring was ongoing 5 minutes before intranasal administration and 30 minutes after.
The objective data consisted in minimum BIS value obtained after administration and time until minimum BIS. The subjective data consisted in physician feedback, swallowing of the drug appreciated by patient, sleeping score appreciated by physician.
Sedation Score was evaluated by physicians as a behavior tool to determine effectiveness of the dose that was given in each of the nasal administrations. Scoring was done according to the following criteria: 1=not Sleepy (not effective); 2=Sleepy/Calm (intermediate effect); 3=Sleeping (drug was effective).
Patients were asked to score if they felt the drug in their throat and/or felt a bitter taste in the throat after the administration of the drug.
The bitterness and swallowing were graded according to the following scale: 1=No swallowing/No bitter taste; 5=A meaningful amount was swallowed/Strong bitter taste.
The repeated administrations with the nasal pump were given with 30 s intervals between them to allow the drug to be absorbed in the nasal cavity before another dose was given.
The anesthesiologist in charge of the patients was asked to rate the overall experience with intranasal administration of midazolam. (1=very good; 5=Not satisfactory).

[5] = commercial MAD Nasal atomizer, 1.4 mg

Structure (SMILES): Cc1ncc2n1-c1ccc(Cl)cc1C(c1ccccc1F)=NC2 [Midazolam]
- sleeping score by observation (patients [1]; SipNose administration, 1.4 mg): 3
- Positive Sedation (patients [1]; SipNose device, 1.4 mg in two aliquots of 0.7 ml): Yes
- Adverse events (patients [1]; SipNose device, 1.4 mg): No
- Level of minimum BIS (patients [1]; SipNose device, 1.4 mg): 84
- Onset time (patients [1]; SipNose device, 1.4 mg): 3 min and 5 min
- Positive Sedation (patients [1]; commercial MAD Nasal atomizer, 1.4 mg in one aliquot): Limited and No
- Adverse events (patients [1]; [5]): No
- Level of minimum BIS (patients [1]; [5]): 83 and 92
- Onset time (patients [1]; [5]): 20 min and 8 min
- sleeping score by observation (average) (patients [1]; commercial device, 1.4 mg): 1.5
- Amylase (blood chemistry) ([2]; Midazolam group): 240±13.1 IU/L
- all relevant safety parameters (clinical observations, histopathology, ophthalmic examination, haematology, blood analysis) ([2]; Midazolam vs control): no differences were found between the control and study groups
- blood coagulation parameters ([2]; Midazolam vs control group): No differences were detected
- histopathology ([2]; either group): No major histopathological abnormalities were found
- blood chemistry analysis, all results ([2]; repeated intra-nasal Midazolam): within the normal range for the blood of rabbits
- blood hematology analysis ([2]; repeated intra-nasal Midazolam vs saline control): None of the parameters showed any difference between the control group and the study group
- body weight during the study ([2]; two 200 μL doses of Midazolam (5 mg/ml) per day via SipNose, repeated daily): did not exhibit major changes in weight
- finding in frontal nose space ([2]; two animals from the Midazolam group, attributed to device tip): very mild bleeding was detected in the frontal nose space
- pharmacokinetic pattern ([3]; 0.6 mg/kg intranasal via SipNose): very similar to that of standard of care (I/V) administration
- absorption into blood and brain ([3]; intranasal via SipNose (0.2 and 0.6 mg/kg) vs I/V 0.6 mg/kg): comparable to that seen for I/V administration
- patients with Highly Effective sedation (patients [4]; Commercial Nasal Pump): 12.5%
- patients with Intermediate Effect of sedation (patients [4]; Commercial Nasal Pump): 50%
- patients with sedation Not Effective (patients [4]; Commercial Nasal Pump): 37.5%
- patients with Highly Effective sedation (patients [4]; SipNose): 100%
- Sedation Score (1 not sleepy, 2 sleepy/calm, 3 sleeping) (patients [4]; SipNose group): 3
- BIS value (minimum after administration) (patients [4]; SipNose group, 1×600 μl): 74.50±3.196
- adverse events or safety issues (patients [4]; both administration procedures (SipNose and commercial nasal pump)): No adverse events or safety issues were reported
- Sedation Score (1 not sleepy, 2 sleepy/calm, 3 sleeping) (patients [4]; commercial pump group): below 2
- BIS value (minimum after administration) (patients [4]; commercial pump group, 6×100 μl): 87.25±1.840
